{"source": "patent US20110183942A1", "about": "“Methods and Compositions for Treating Alzheimer's Disease” (UNIVERSITY OF MEDICINE AND DENTISTRY OF NEW JERSEY, priority 2008, published 2011)", "key": {"[1]": {"tested_on": "global protein synthesis in cultured neurons", "experiment": "Metabolic labeling, incorporation of 35S methionine and cysteine into TCA precipitant", "type": "cell-based", "experimental": "To measure the incorporation of ^35S methionine and cysteine into new peptide, 30 μl protein labeling mix (Perkin Elmer) was added into 1.5 ml of regular culture medium (final 220 μCi/ml) for the time indicated in the figures. After washout once with ice-cold PBS, cells were lysed with 700 μl of RIPA buffer. After quantification of total amount of protein, equal amount of lysate (˜200 μl) was precipitated with 10% TCA."}, "[2]": {"tested_on": "hippocampal Schaffer collateral-CA1 synapses", "experiment": "Field recording of fEPSP (mGluR-LTD) in acute hippocampal slices", "type": "cell-based, mouse", "conditions": "for DHPG-LTD (fEPSP slope): t=75 min", "experimental": "For recording, slices were placed in a submersion recording chamber and perfused with 30° C. ACSF at a rate of 2 ml/min.\nfEPSPs were recorded with extracellular recording electrodes (1.0 MΩ) filled with ACSF and placed in the stratum radiatum of area CA1. Synaptic responses were evoked by a 200-μsec current pulse to Schaffer collateral axons with a concentric bipolar tungsten stimulating electrode. Stable baseline responses were collected every 30 sec by using a stimulation intensity (10-30 μA) yielding 50-60% of the maximal fEPSP slope response.\nmGluR-LTD was induced by a mGluR1/5 agonist, (R,S)-3,5-DHPG (Tocris), or by electrical stimulations. […] NMDAR dependent-LTD was induced by using 900 single pulses delivered at 1 Hz."}, "[3]": {"tested_on": "Arc protein in DIV14 forebrain neurons", "experiment": "Western blot of Arc protein in cultured forebrain neurons", "type": "cell-based, mouse", "experimental": "For biochemistry experiments, 0.4×10^6 neurons were added to each well of a 6-well plate (Coming) coated with poly-L-lysine. Growth medium consisted of NeuroBasal (Invitrogen) supplemented with 1% fetal bovine serum (Hyclone), 2% B27, 1% Glutamax (Invitrogen), 100 U/mL penicillin, and 100 U/mL streptomycin (Invitrogen). Neurons were fed twice per week with glia conditioned growth medium.\nTransfected HEK293T cells or cultured neurons were treated with various drugs and then harvested in IP buffer supplemented with 1% Triton X-100 buffer and Complete™ EDTA-Free protease inhibitors. Soluble fractions were diluted with 4× SDS sample buffer.\nThe membrane was blocked with TBST (50 mM Tris, pH 7.5, with 150 mM NaCl, and 0.1% Tween-20) containing 5% non-fat milk for one hour at room temperature, followed by incubation with primary antibody in TBST buffer overnight at 4° C. After three washes with TBST buffer, membranes were incubated with HRP-conjugated anti-rabbit, or anti-mouse antibody in TBST for another hour. After three washes with TBST buffer, the membrane was treated with SuperSignal ECL substrate (Pierce) according to the manufacturer's protocol.\nTo reduce the background signal in the co-IP assay, HRP-conjugated HA or HPR conjugated myc antibody (Santa Cruz) was used when overexpressed proteins were tagged with HA or myc. […] Image J software (NIH) was used for quantification."}, "[4]": {"tested_on": "surface AMPA receptor (GluR2/3, GluR1) in cultured neurons", "experiment": "Surface biotinylation assay of AMPA receptor subunits", "type": "cell-based, mouse", "conditions": "DHPG 5 min", "experimental": "For surface biotinylation, drug-treated cortical neurons were cooled on ice, washed twice with ice-cold PBS++ (1× PBS, 1 mM CaCl2, 0.5 mM MgCl2) and then incubated with PBS++ containing 1 mg/ml Sulfo-NHS-SSBiotin (Pierce) for 30 min at 4° C. Unreacted biotin was quenched by washing cells three times with PBS++ containing 100 mM Glycine (pH 7.4) (briefly once and for 5 min twice). Cultures were harvested in RIPA buffer and sonicated. Homogenates were centrifuged at […] for 20 min at 4° C. Fifteen % of supernatant was saved as the total protein. […] Precipitates were washed with RIPA buffer three times (5 min each time). All procedures were done at 4° C."}, "[5]": {"tested_on": "GluR1-containing AMPA receptors in primary hippocampal neurons", "experiment": "AMPA receptor trafficking (surface and internalized GluR1 labeling)", "type": "cell-based, mouse", "experimental": "(§1) Labeling of surface or internalized pool of AMPA receptor was performed as described with minor modifications (Shepherd, et al., Neuron, 52, 475-484 (2006)). Briefly, surface GluR1-containing AMPA receptors were then labeled by adding 2.5 μg of GluR1-N JH1816 pAb to the neuronal growth media and were subsequently incubated at 37° C. for 15 or 60 minutes after 5 min DHPG application. To visualize surface and internalized GluR1, Alexa 555 secondary was added in excess live at 10° C. Neurons were fixed, permeabilized and subsequently exposed to Alexa 488 secondary to stain internalized receptors (background in the non-permeabilized control was negligible).\nas §1, with “DIV 14-21 mouse primary hippocampal cultures were incubated in neuronal growth media containing 50 μMDHPG for 5 minutes and then washed” for “Labeling of surface or internalized pool of AMPA receptor was performed as described”, “new growth media. Surface” for “minor modifications (Shepherd, et al., Neuron, 52, 475-484 (2006)). Briefly, surface”\nQuantification of surface GluR1 puncta was carried out using Image J software. Images were acquired as multi-channel TIFF files with a dynamic range of 4096 gray levels (12-bit binary; MultiTrack acquisition for confocal) using metamorph software on a Zeiss LSM 510 confocal microscope. To measure punctate structures neurons were thresholded by gray value at a level close to 50% of the dynamic range. Background noise from these images was negligible. All puncta were treated as individual objects and the characteristics of each, such as area and average fluorescence, were logged measured. The Data reflected in FIGS. 1B-C was an example of one representative experiment. The total intensity of GluR1 levels were normalized to control, untreated neurons at 60 min. Significance was determined by a paired Student's t-test."}}, "note": "Entries after “also recorded” stand apart in the source; their conditions may differ.", "data": [{"smiles": "NC(C(=O)O)c1cc(O)cc(O)c1", "note": "(racemic) [DHPG, (R,S)-3,5-DHPG]", "values": [{"measurement": "global protein synthesis compared to untreated control", "setting": "[1]; pretreatment of DHPG (30 min before harvest for 5 min)", "result": "1.080±0.036"}, {"measurement": "global protein synthesis compared to untreated control", "setting": "[1]; simultaneous treatment of DHPG for 5 min", "result": "0.926±0.017"}, {"measurement": "fEPSP slope after DHPG", "setting": "[2]; Arc KO slices, DHPG 50 μM 5 min, t=70 min", "result": "92.1±3.7 % of baseline"}, {"measurement": "fEPSP slope after DHPG", "setting": "[2]; Arc KO slices, DHPG 100 μM 5 min, t=90 min", "result": "88.5±7.4 % of baseline"}, {"measurement": "DHPG-LTD (fEPSP slope)", "setting": "[2]; Arc/Fmr1 DKO slices, DHPG 50 μM 5 min", "result": "85.9±4.1 % of baseline"}, {"measurement": "DHPG-LTD (fEPSP slope)", "setting": "[2]; FVB WT slices, DHPG 50 μM 5 min", "result": "73.0±6.6 % of baseline"}, {"measurement": "DHPG-LTD (fEPSP slope)", "setting": "[2]; Fmr1 KO slices, DHPG 50 μM 5 min", "result": "68.2±2.6 % of baseline"}, {"measurement": "fEPSP slope after DHPG", "setting": "[2]; WT slices (littermates of Arc KO), DHPG 50 μM 5 min, t=70 min", "result": "72.8±2.0 % of baseline"}, {"measurement": "fEPSP slope after DHPG", "setting": "[2]; WT slices (littermates of eEF2K KO), DHPG 50 μM 5 min, t=90 min", "result": "64.7±5.2 % of baseline"}, {"measurement": "fEPSP slope after DHPG", "setting": "[2]; WT slices, DHPG 100 μM 5 min, t=90 min", "result": "64.4±2.6 % of baseline"}, {"measurement": "fEPSP slope after DHPG", "setting": "[2]; eEF2K KO slices, DHPG 50 μM 5 min, t=90 min", "result": "108.7±3.6 % of baseline"}, {"measurement": "rapid increase of Arc protein following DHPG stimulation", "setting": "[3]; Fmr1 KO neurons", "result": "absent"}, {"measurement": "level of Arc protein after DHPG", "setting": "[3]; WT neurons, DHPG 50 μM, 5 min", "result": "significantly increased the level of Arc; also recorded: induced"}, {"measurement": "increase in Arc protein 5 min after DHPG", "setting": "[3]; eEF2K KO neurons", "result": "absent"}, {"measurement": "reduction of ratio of surface to total GluR2/3", "setting": "[4]; WT neurons", "result": "~30", "unit": "%"}, {"measurement": "reduction of ratio of surface to total GluR2/3", "setting": "[4]; eEF2K KO neurons", "result": "did not significantly reduce"}, {"measurement": "internalized GluR1", "setting": "[5]; Arc KO neurons, after DHPG", "result": "did not exhibit changes"}, {"measurement": "surface GluR1", "setting": "[5]; Arc KO neurons, after DHPG", "result": "did not exhibit any changes"}, {"measurement": "internalized GluR1", "setting": "[5]; WT cultures, 15 min after 5 min DHPG", "result": "increase of internalized GluR1"}, {"measurement": "surface GluR1", "setting": "[5]; WT hippocampal cultures, 15 min and 60 min after 5 min DHPG", "result": "loss of surface GluR1"}]}]}
